Calls of active or inactive are those of the source. The calls are words filed in the database; no cut-off is given here.
How the values were obtained:
[1] = system: MOLM-13; test: Antiproliferative activity against human MOLM-13 cells assessed as reduction in cell viability after 72 hrs by MTS assay; format: functional
[2] = system: MOLM-13; test: Antiproliferative activity against human MOLM-13 cells harboring D835Y mutant assessed as reduction in cell viability after 72 hrs by MTS assay; format: functional
[3] = Resistant index, ratio of GI50 for antiproliferative activity against human MOLM-13 cells harboring D835Y mutant to antiproliferative activity against human MOLM-13 cells; format: functional
[4] = system: MV4-11; test: Antiproliferative activity against human MV4-11 cells assessed as reduction in cell viability at 25 uM after 72 hrs by MTS assay relative to control; format: functional
[5] = system: MV4-11; test: Antiproliferative activity against human MV4-11 cells assessed as reduction in cell viability at 50 uM after 72 hrs by MTS assay relative to control; format: functional
[6] = system: K562; test: Antiproliferative activity against human K562 cells assessed as reduction in cell viability at 25 uM after 72 hrs by MTS assay relative to control; format: functional
[7] = system: K562; test: Antiproliferative activity against human K562 cells assessed as reduction in cell viability at 50 uM after 72 hrs by MTS assay relative to control; format: functional
[8] = system: MV4-11; test: Antiproliferative activity against human MV4-11 cells assessed as reduction in cell viability after 72 hrs by MTS assay; format: functional
[9] = system: THP-1; test: Antiproliferative activity against human THP-1 cells assessed as reduction in cell viability after 72 hrs by MTS assay; format: functional
[10] = system: Receptor-type tyrosine-protein kinase FLT3 (Homo sapiens), P36888 [UNDEFINED MUTATION]; test: Inhibition of FLT3 ITD mutant in human MV4-11 cells assessed as inhibition of ERK phosphorylation at 25 to 50 uM incubated for 2 hrs by immunoblotting analysis; format: cell-based; conditions: dose microM 25-50, time 2.0 hrs
[11] = target: Receptor-type tyrosine-protein kinase FLT3 (Homo sapiens) (UniProt P36888); test: Inhibition of FLT3 (unknown origin) at 100 uM in presence of ATP relative to control
[12] = system: Receptor-type tyrosine-protein kinase FLT3 (Homo sapiens), P36888 [UNDEFINED MUTATION]; test: Inhibition of FLT3 ITD mutant in human MV4-11 cells assessed as inhibition of STAT5 phosphorylation at 25 to 50 uM incubated for 2 hrs by immunoblotting analysis; format: cell-based; conditions: dose microM 25-50, time 2.0 hrs
[13] = target: T1, Tubulin (Homo sapiens) (UniProt P68371+Q9H4B7+P0DPH7+P68366+Q13509+Q71U36+P04350+Q3ZCM7+P07437+P68363+Q9BQE3+Q6PEY2+Q13885+Q9BVA1+Q9BUF5); test: Displacement of colchicine from tubulin (unknown origin) at 50 uM after 1 hr by fluorescence assay relative to control; format: protein-complex assay
[14] = Selectivity ratio of GI50 for antiproliferative activity against human THP-1 cells to GI50 antiproliferative activity against human MV4-11 cells; format: functional
[15] = Selectivity ratio of GI50 for antiproliferative activity against human THP-1 cells to GI50 antiproliferative activity against human MOLM-13 cells; format: functional
[16] = system: Receptor-type tyrosine-protein kinase FLT3 (Homo sapiens), P36888 [UNDEFINED MUTATION]; test: Inhibition of FLT3 ITD mutant in human MV4-11 cells assessed as inhibition of ERK phosphorylation at 1.56 to 50 uM incubated for 2 hrs by immunoblotting analysis; format: cell-based; conditions: dose microM 1.56-50, time 2.0 hrs
[17] = system: Receptor-type tyrosine-protein kinase FLT3 (Homo sapiens), P36888 [UNDEFINED MUTATION]; test: Inhibition of FLT3 ITD mutant in human MV4-11 cells assessed as inhibition of STAT5 phosphorylation at 1.56 to 50 uM incubated for 2 hrs by immunoblotting analysis; format: cell-based; conditions: dose microM 1.56-50, time 2.0 hrs
[18] = target: T2, Receptor-type tyrosine-protein kinase FLT3 (Homo sapiens, UniProt P36888); test: Inhibition of FLT3 (unknown origin) in presence of ATP
T2 sequence (P36888 whole entry): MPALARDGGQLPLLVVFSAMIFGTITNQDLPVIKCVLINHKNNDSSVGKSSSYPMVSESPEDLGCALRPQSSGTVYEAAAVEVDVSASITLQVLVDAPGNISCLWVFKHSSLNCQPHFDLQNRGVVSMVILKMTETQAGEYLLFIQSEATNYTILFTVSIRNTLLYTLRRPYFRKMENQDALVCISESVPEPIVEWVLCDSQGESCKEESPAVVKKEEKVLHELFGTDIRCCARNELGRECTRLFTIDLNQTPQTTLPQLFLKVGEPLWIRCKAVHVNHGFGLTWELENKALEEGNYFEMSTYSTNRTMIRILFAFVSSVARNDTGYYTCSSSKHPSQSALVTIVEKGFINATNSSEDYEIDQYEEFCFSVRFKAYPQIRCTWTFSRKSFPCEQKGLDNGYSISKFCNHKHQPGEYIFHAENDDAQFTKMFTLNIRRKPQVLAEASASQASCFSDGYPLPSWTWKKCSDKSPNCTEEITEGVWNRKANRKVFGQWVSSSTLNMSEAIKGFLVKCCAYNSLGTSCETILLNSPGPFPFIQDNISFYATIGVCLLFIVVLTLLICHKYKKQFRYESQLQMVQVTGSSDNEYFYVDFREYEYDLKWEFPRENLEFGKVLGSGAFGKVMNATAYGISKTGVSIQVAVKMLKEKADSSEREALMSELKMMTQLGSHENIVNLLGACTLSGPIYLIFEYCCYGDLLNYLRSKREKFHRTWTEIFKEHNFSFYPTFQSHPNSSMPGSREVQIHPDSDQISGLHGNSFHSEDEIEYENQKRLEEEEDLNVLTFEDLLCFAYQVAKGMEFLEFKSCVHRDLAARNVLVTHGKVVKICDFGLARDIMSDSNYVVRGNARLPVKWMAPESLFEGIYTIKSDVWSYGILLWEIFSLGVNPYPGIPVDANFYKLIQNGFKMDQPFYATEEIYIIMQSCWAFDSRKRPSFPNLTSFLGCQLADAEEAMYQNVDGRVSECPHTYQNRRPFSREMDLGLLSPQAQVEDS

[19] = target: T1, Tubulin (Homo sapiens); test: Inhibition of microtubule polymerization in human HCT-116 cells assessed as increase in histone H3 phosphorylation at S10 residue at 25 uM after 8 hrs by DOT blot analysis; format: cell-based
[20] = target: T1, Tubulin (Homo sapiens); test: Inhibition of microtubule polymerization in human HCT-116 cells assessed as increase in histone H3 phosphorylation at S10 residue at 0.78 uM after 8 hrs by Western blot analysis; format: cell-based
[21] = target: T1, Tubulin (Homo sapiens); test: Inhibition of microtubule polymerization in human MV4-11 cells assessed as increase in histone H3 phosphorylation at S10 residue at 0.78 uM after 8 hrs by Western blot analysis; format: cell-based
[22] = target: T1, Tubulin (Homo sapiens); test: Inhibition of microtubule polymerization in human MV4-11 cells assessed as increase in histone H3 phosphorylation at S10 residue at 0.35 to 2.5 uM after 24 hrs by propidium iodide staining based flow cytometric analysis; format: cell-based; conditions: dose microM 0.35-2.5, time 24.0 hrs
[23] = target: T1, Tubulin (Homo sapiens); test: Inhibition of microtubule repolymerization in human A549 cells at 5 uM preincubated for 30 mins followed by 10 min incubation at ice cold methanol by DAPI staining based confocal microscopic method relative to control; format: cell-based; conditions: time 40.0 min
[24] = target: T1, Tubulin (Homo sapiens); test: Inhibition of tubulin polymerization (unknown origin) measured every 30 sec for 1 hrs in presence of GTP by turbidimetric analysis; format: protein-complex assay; conditions: dose microM 5-25, time 1.0 hrs
[25] = target: T1, Tubulin (Homo sapiens); test: Displacement of colchicine in tubulin (unknown origin) at 12.5 uM after 1 hr by fluorescence assay relative to control; format: protein-complex assay
[26] = target: T1, Tubulin (Homo sapiens); test: Displacement of colchicine from tubulin (unknown origin) at 25 uM after 1 hr by fluorescence assay relative to control; format: protein-complex assay
[27] = system: MV4-11; test: Induction of apoptosis in human MV4-11 cells assessed as increase in cleaved caspase-3 level at 0.313 to 5 uM after 24 hrs by Western blot analysis; format: functional, cell-based; conditions: dose microM 0.313-5, time 24.0 hrs
[28] = system: MV4-11; test: Induction of apoptosis in human MV4-11 cells assessed as increase in cleaved PARP level at 0.313 to 5 uM after 24 hrs by Western blot analysis; format: functional, cell-based; conditions: dose microM 0.313-5, time 24.0 hrs
[29] = system: MV4-11; test: Induction of apoptosis in human MV4-11 cells at 0.31 to 2.5 uM after 24 to 48 hrs by Annexin V/prpidium iodide staining based flow cytometric analysis; format: functional, cell-based; conditions: dose microM 0.31-2.5, time hrs 24-48

`COc1cc2c(N3CCN(C(=O)Nc4ccc(OC(C)C)cc4)CC3)ncnc2cc1OCCCN1CCCCC1` [TANDUTINIB] showed a GI50 [1] of 0.052 µM, a GI50 [2] of 1.9 µM and a RatioGI50 [3] of 35.8.

With `O=C(/C=C/c1ccccc1Cl)c1ccc(OCc2ccccc2)cc1` the Activity [4] was “inactive”, the Activity [5] was “inactive” and the Activity [6] was “inactive”. The Activity [7] was “inactive”.

With `O=C(/C=C/c1ccccc1)c1ccccc1O` [2'-HYDROXYCHALCONE] the GI50 [1] was > 10 µM, the GI50 [8] was > 10 µM and the GI50 [9] was > 10 µM. For the same compound, the Activity [4] was “Active”, the Activity [5] was “Active” and the Activity [6] was “Active”. The Activity [7] was “Active”, the inhibition [10] was “Active” and the inhibition [11] was 39.5%.

For `O=C(/C=C/c1ccc(OCc2ccccc2)cc1)c1ccccc1`, the Activity [4] was “inactive”, the Activity [5] was “inactive” and the Activity [6] was “inactive”. The Activity [7] was “inactive”.

For `COc1ccc(/C=C/C(=O)c2ccc(OC)cc2O)cc1`, the GI50 [1] was > 10 µM, the GI50 [8] was > 10 µM and the GI50 [9] was > 100 µM. For the same compound, the Activity [4] was “Active”, the Activity [5] was “Active” and the Activity [6] was “Active”. For the same compound, the Activity [7] was “Active” and the inhibition [12] was “Active”.

For `O=C(/C=C/c1ccc(Cl)cc1)c1ccc(OCc2ccccc2)cc1`, the Activity [4] was “inactive”, the Activity [5] was “inactive” and the Activity [6] was “inactive”. The Activity [7] was “inactive”.

For `O=C(/C=C/c1ccc(F)cc1)c1ccc(OCc2ccccc2)cc1`, the Activity [4] was “inactive”, the Activity [5] was “inactive” and the Activity [6] was “inactive”. For the same compound, the Activity [7] was “inactive”.

For `COC(=O)Nc1nc2cc(C(=O)c3cccs3)ccc2[nH]1`, the inhibition [13] was 93.5%.

With `COc1cccc(/C=C/C(=O)c2ccc(OCc3ccccc3)cc2)c1` the Activity [4] was “inactive”, the Activity [5] was “inactive” and the Activity [6] was “inactive”. The Activity [7] was “inactive”.

For `O=C(/C=C/c1ccccc1)c1ccc(OCc2ccccc2)cc1`, the Activity [4] was “inactive”, the Activity [5] was “inactive” and the Activity [6] was “inactive”. For the same compound, the Activity [7] was “inactive”.

Work on `C=CCOc1cc(OC)ccc1C(=O)/C=C/c1ccc(OC)cc1` yielded a GI50 [1] of 0.2 µM, a GI50 [8] of 0.24 µM and a GI50 [9] of 5.4 µM. The Activity [4] was >95%, the Activity [5] was >95% and the Activity [6] was >95%. The Activity [7] was >95%, the RatioGI50 [14] was >2 and the RatioGI50 [15] was >2. For the same compound, the inhibition [16] was “Active”, the inhibition [17] was “Active” and the IC50 [18] was 5.7 µM. The inhibition [19] was “Active”, the inhibition [20] was “Active” and the inhibition [21] was “Active”. For the same compound, the inhibition [22] was “Active”, the inhibition [23] was 100% and the inhibition [24] was “Active”. It also gave an inhibition [25] of 75%, an inhibition [26] of 80% and an inhibition [13] of 87%. For the same compound, the Activity [27] was “Active”, the Activity [28] was “Active” and the Activity [29] was “Active”. For the same compound, the GI50 [2] was 0.22 µM and the RatioGI50 [3] was 1.

For `COc1ccc(/C=C/C(=O)c2ccc3c(c2O)C=CC(C)(C)O3)cc1`, the Activity [4] was “inactive”, the Activity [5] was “inactive” and the Activity [6] was “inactive”. The Activity [7] was “inactive”.

With `COc1ccc(C(=O)/C=C/c2ccc(OC)c(OC)c2)c(O)c1` the GI50 [1] was 10 µM, the GI50 [8] was > 10 µM and the GI50 [9] was > 100 µM. The Activity [4] was “Active”, the Activity [5] was “Active” and the Activity [6] was “Active”. For the same compound, the Activity [7] was “Active”, the inhibition [10] was “Active” and the inhibition [12] was “Active”. The IC50 [18] was 13.8 µM.

With `COc1ccc(/C=C/C(=O)c2ccc(OCc3ccccc3)cc2)c(OC)c1OC` the Activity [4] was “inactive”, the Activity [5] was “inactive” and the Activity [6] was “inactive”. The Activity [7] was “inactive”.

Source: ChEMBL document CHEMBL4699519, “Natural and Semisynthetic Chalcones as Dual FLT3 and Microtubule Polymerization Inhibitors” (J Nat Prod, 2020)
